Experimental data: patent US20140171436A1, “TREATMENT OF ANTIFOLATE NEUROTOXICITY” (Syntrix Biosystems, Inc., priority 2003, published 2014)
Values joined by “and” are separate entries in the source; they are usually repeats but may differ in a detail not shown here. Equal values may be shown once.

Key:
sigma-1 receptor = sigma-1 receptor (Homo sapiens, UniProt Q99720); conditions: cited from earlier work; for Ki: read-out: sigma-1 affinity Ki
sigma-2 = sigma-2 (Homo sapiens, UniProt Q5BJF2); conditions: read-out: Ki sigma-2; cited from earlier work
Sequence of sigma-2 (Q5BJF2 whole entry): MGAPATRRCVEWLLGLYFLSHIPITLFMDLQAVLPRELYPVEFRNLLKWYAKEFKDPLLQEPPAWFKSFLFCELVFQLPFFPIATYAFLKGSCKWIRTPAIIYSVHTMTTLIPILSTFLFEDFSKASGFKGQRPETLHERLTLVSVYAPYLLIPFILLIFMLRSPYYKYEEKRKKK

[1] = system: patients with AF-NT (MTX neurotoxicity); experiment: Patients with AF-NT treated with oral dextromethorphan; format: in vivo, human
Description: For example, the intensity, duration and frequency of neurological symptoms such as seizure, paralysis, nystagmus, ataxia, dysarthria, aphasia cranial nerve palsy, asthenia can be readily determined by clinical evaluation. A variety of validated grading methods are available to assess such symptoms. As used herein, useful strategies for grading such objective AF-NT symptoms include time to initial response, time to resolution of all symptoms, and a grade (1-3) of the rate of symptom resolution for the majority of all AF-NT symptoms. In this grading system, a grade 1 is where symptoms resolve gradually or linearly over an extended period exceeding 96 hours, a grade 2 is where the majority of symptoms resolve in 25 to 96 hours), and a grade 3 is where the majority of symptoms resolve in 24 hours or less: the greater the grade, the greater degree of symptom improvement. Physical deficits that can be objectively assessed generally appear in patients with moderate- to high-dose exposure to antifolate.
The mean grade of symptom resolution for untreated patients was 1.4±0.2 (mean±SEM), while the mean grade of symptom resolution for treated patients was 2.3±0.2 (mean±SEM).

[2] = frequent and massive doses as large as 3300 mg/day; cited from earlier work
NMDA receptor = conditions: read-out: Ki NMDAR; cited from earlier work
[3] = in vivo; cited from earlier work
[4] = Example 1: NHL, 32 M, MTX 12 mg IT, oral DM 1 mg/kg once
[5] = Example 2: ALL, 15 M, MTX 12 mg IT and 100 mg/m^2 IV, oral DM 2 mg/kg × 1
[6] = Example 3: ALL, 19 M, MTX 7.5 mg IO and 1 g/m^2 IV, oral DM 1 mg/kg TID
[7] = Example 4: OS, 13 M, MTX 12 g/m^2 IV, oral DM 1 mg/kg TID
[8] = Example 4, DM 1 mg/kg three times on a single day
[9] = Example 5: OS, 16 M, MTX 12 g/m^2 IV, oral DM 1 mg/kg × 1
[10] = Example 6: ALL, 18 F, MTX 12 mg IT, oral DM 1 mg/kg BID
[11] = Example 7: ALL, 6 F, MTX 12 mg IT, oral DM 1 mg/kg BID × 3
[12] = Example 8: ALL, 9 F, MTX 12 mg IT, oral DM 1 mg/kg BID
[13] = Example 9: ALL, 14 M, IV and IT MTX, oral DM 1 mg/kg TID
[14] = Example 10: ALL, 8 F, MTX 12 mg IT, oral DM 1 mg/kg BID
[15] = Example 11: ALL, 15 F, MTX 12 mg IT, oral DM 1 mg/kg BID
[16] = Example 12: ALL, 5 M, IV and IT MTX, oral DM 1 mg/kg TID
[17] = Example 13: ALL, 13 M, MTX 12 mg IT, oral DM 1 mg/kg BID
[18] = Example 14: ALL, 14 F, MTX 12 mg IT, oral DM 1 mg/kg BID
[19] = Example 15: ALL, 13 F, MTX 12 mg IT, oral DM 1.5 mg/kg BID × 6
[20] = Example 16: ALL, 6 M, MTX 12 mg IT, oral DM 1 mg/kg BID × 5

Sequence of sigma-1 receptor (Q99720 whole entry, species assumed): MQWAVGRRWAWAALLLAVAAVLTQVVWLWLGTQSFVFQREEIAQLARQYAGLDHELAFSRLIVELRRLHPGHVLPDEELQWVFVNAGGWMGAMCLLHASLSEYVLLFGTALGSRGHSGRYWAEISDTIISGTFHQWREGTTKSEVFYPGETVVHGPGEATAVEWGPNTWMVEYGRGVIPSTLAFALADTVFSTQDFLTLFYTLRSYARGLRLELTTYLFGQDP

Compound: COc1ccc2c(c1)[C@@]13CCCC[C@H]1[C@@H](C2)N(C)CC3 [dextromethorphan, (+)-3-methoxy-N-methylmorphinan]
- Kd (sigma-1 receptor; read-out: sigma-1 affinity Kd): 0.02 µM
- Ki (sigma-1 receptor): 0.205 µM and 0.21 µM
- Ki (sigma-2): 4 to 11 µM
- Grade (1-3) of symptom resolution [1, 4]: 3 (3 = rapid (majority of symptoms resolved in 24 hours or less))
- Time to initial response [1, 4]: 3 h
- Time to resolution of all symptoms [1, 4]: 24 h
- Grade (1-3) of symptom resolution [1, 5]: 3 (3 = rapid (majority of symptoms resolved in 24 hours or less))
- Time to initial response [1, 5]: 0.50 h
- Time to resolution of all symptoms [1, 5]: 6 h
- duration of symptoms ([1]; Example 3, text, DM 1 mg/kg three times on a single day): 10 days
- Grade (1-3) of symptom resolution [1, 6]: 1 (1 = gradual (symptoms resolved gradually or linearly over an extended period exceeding 96 hours))
- Time to initial response [1, 6]: 3 h
- Time to resolution of all symptoms [1, 6]: 240 h
- Grade (1-3) of symptom resolution [1, 7]: 2 (2 = moderate (majority of symptoms resolved in 25 to 96 hours))
- Time to initial response [1, 7]: 0.75 h
- Time to resolution of all symptoms [1, 7]: 72 h
- duration of symptoms [1, 8]: 3 days
- time until symptoms began to improve [1, 8]: 45 min
- duration of symptoms ([1]; Example 5, text, DM 1 mg/kg once): 0.0208 days
- Grade (1-3) of symptom resolution [1, 9]: 3 (3 = rapid (majority of symptoms resolved in 24 hours or less))
- Time to initial response [1, 9]: 0.50 h
- Time to resolution of all symptoms [1, 9]: 0.50 h
- persistent confusion ([1]; Example 6, text, DM 1 mg/kg po BID): 8 days
- Grade (1-3) of symptom resolution [1, 10]: 2 (2 = moderate (majority of symptoms resolved in 25 to 96 hours))
- Time to initial response [1, 10]: 24 h
- Time to resolution of all symptoms [1, 10]: 192 h
- Grade (1-3) of symptom resolution [1, 11]: 3 (3 = rapid (majority of symptoms resolved in 24 hours or less))
- Time to initial response [1, 11]: 4 h
- Grade (1-3) of symptom resolution [1, 12]: 2 (2 = moderate (majority of symptoms resolved in 25 to 96 hours))
- Time to initial response [1, 12]: 2 h
- Grade (1-3) of symptom resolution [1, 13]: 3 (3 = rapid (majority of symptoms resolved in 24 hours or less))
- Time to initial response [1, 13]: 2 h
- Time to resolution of all symptoms [1, 13]: 3 h
- time to complete resolution ([1]; Example 10, text, DM 1 mg/kg po BID for 24 hours): 5 days
- Grade (1-3) of symptom resolution [1, 14]: 2 (2 = moderate (majority of symptoms resolved in 25 to 96 hours))
- Time to resolution of all symptoms [1, 14]: 120 h
- time until back to baseline ([1]; Example 11, text, DM 1 mg/kg po BID): 8 days
- Grade (1-3) of symptom resolution [1, 15]: 3 (3 = rapid (majority of symptoms resolved in 24 hours or less))
- Time to initial response [1, 15]: 24 h
- Time to resolution of all symptoms [1, 15]: 192 h
- Grade (1-3) of symptom resolution [1, 16]: 3 (3 = rapid (majority of symptoms resolved in 24 hours or less))
- Time to initial response [1, 16]: 24 h
- Time to resolution of all symptoms [1, 16]: 24 h
- Grade (1-3) of symptom resolution [1, 17]: 3 (3 = rapid (majority of symptoms resolved in 24 hours or less))
- Time to initial response [1, 17]: 24 h
- Time to resolution of all symptoms [1, 17]: 24 h
- time until able to speak ([1]; Example 14, text, DM 1 mg po BID by nasogastric tube): 9 days
- Grade (1-3) of symptom resolution [1, 18]: 1 (1 = gradual (symptoms resolved gradually or linearly over an extended period exceeding 96 hours))
- Time to initial response [1, 18]: 216 h
- Time to resolution of all symptoms [1, 18]: >1000 h
- Grade (1-3) of symptom resolution [1, 19]: 1 (1 = gradual (symptoms resolved gradually or linearly over an extended period exceeding 96 hours))
- Time to resolution of all symptoms [1, 19]: >1000 h
- time to complete resolution ([1]; Example 16, text, DM 1 mg/kg po BID for 5 days): about 5 days
- Grade (1-3) of symptom resolution [1, 20]: 1 (1 = gradual (symptoms resolved gradually or linearly over an extended period exceeding 96 hours)) and 2 (2 = moderate (majority of symptoms resolved in 25 to 96 hours))
- Time to initial response [1, 20]: 24 to 48 h and 24 h
- Time to resolution of all symptoms [1, 20]: 120 h
- mean grade of symptom resolution (mean±SEM) ([1]; treated patients, Examples 1-16, P 0.0042 vs untreated, unpaired t test): 2.3±0.2
- side-effects [2]: unacceptable PCP-like side-effects

Compound: CC12CC3CC(C)(C1)CC(N)(C3)C2 [memantine]
- Ki (NMDA receptor): 0.5 µM
- mean CSF/serum ratio [3]: 0.52
- Ki (sigma-1 receptor): 2.6 µM
